IC50 data for one compound are collected here from ChEMBL document CHEMBL5727632, “Substituted 1H-imidazo[4,5-b]pyridin-2(3H)-ones and their use as GluN2B receptor modulators” (2020).

The target in the test is Glutamate receptor ionotropic, NMDA 2B (Homo sapiens, UniProt Q05586+Q13224). The experiment in a line: Standard cell-based calcium flux assay: NMDA receptors are ion channels that are highly permeable to Ca2+ ions, rendering it possible to monitor NMDA receptor function using cell-based calcium flux assay. In this assay, co-agonists glutamate and glycine are added to cells heterologously expressing human GluN1/GluN2B NMDA receptors to initiate cellular Ca2+ influx. The time course of the changes in intracellular calcium is measured using a fluorescent dye and a FLIPR (Fluorometric Imaging Plate Reader) device.Twenty four hours before measurements, the expression of the NMDA receptors in the stable cell line is induced with Tet-On inducible system in the presence of a non-selective NMDA receptor blocker. On the day of the experiment, cell culture media is carefully washed and the cells are loaded with Calcium 5 Dye Kit (Molecular Devices) in dye loading buffer containing 137 mM NaCl, 4 mM KCl, 2 mM CaCl2, 0.5 mM MgCl2 (standard assay) or 1.5 mM MgCl2 (HTS assay), 10 mM HEPES and 5 mM D-glucose; pH 7.4. […].
Sequence of Glutamate receptor ionotropic, NMDA 2B (Q13224 whole entry, one chain of several): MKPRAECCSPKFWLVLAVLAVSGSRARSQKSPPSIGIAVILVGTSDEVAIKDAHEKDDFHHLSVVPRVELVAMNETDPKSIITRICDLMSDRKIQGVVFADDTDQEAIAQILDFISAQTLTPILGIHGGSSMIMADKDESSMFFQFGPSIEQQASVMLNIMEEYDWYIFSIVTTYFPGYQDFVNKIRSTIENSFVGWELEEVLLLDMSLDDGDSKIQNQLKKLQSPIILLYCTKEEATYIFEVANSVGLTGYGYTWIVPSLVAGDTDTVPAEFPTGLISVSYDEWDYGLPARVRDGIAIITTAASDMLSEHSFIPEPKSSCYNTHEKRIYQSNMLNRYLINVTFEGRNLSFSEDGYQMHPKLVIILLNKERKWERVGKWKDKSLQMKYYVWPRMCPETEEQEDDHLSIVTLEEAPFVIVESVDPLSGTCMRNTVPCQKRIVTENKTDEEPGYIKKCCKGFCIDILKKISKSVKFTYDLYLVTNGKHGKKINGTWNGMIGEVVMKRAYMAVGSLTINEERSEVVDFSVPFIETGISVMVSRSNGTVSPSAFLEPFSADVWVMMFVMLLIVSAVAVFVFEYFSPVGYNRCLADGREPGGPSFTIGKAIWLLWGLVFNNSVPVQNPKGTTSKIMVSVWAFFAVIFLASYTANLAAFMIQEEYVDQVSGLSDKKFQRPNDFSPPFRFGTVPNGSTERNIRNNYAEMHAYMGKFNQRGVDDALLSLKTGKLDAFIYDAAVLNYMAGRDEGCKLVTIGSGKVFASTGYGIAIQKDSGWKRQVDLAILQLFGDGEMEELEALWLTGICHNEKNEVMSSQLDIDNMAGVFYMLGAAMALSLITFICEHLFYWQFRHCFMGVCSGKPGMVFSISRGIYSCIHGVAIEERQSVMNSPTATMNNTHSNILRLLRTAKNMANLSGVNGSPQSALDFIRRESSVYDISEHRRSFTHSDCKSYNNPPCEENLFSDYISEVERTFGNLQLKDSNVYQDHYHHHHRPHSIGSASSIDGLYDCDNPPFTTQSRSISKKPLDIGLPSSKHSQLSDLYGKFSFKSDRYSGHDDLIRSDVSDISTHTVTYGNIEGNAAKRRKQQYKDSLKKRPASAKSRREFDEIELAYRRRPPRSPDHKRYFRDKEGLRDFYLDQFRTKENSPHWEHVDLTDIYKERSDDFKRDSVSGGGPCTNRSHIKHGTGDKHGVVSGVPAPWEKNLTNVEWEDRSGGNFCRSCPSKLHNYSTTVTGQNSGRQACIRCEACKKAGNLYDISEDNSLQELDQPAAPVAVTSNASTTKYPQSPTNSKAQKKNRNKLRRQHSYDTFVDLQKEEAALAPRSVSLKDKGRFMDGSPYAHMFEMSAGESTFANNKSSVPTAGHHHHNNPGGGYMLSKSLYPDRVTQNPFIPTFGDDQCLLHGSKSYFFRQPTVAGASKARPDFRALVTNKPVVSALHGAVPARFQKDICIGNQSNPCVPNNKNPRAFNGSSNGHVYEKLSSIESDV

The structures appear in SMILES notation.

As for `Cn1c(=O)n(CC(=O)N2CCC2)c2cc(-c3cc(OCCF)cc(C(F)(F)F)c3)cnc21`, the IC50 turned out to be 1290 nM.

By IC50 is commonly meant the point on the concentration scale where inhibition reaches its midpoint.
